# Data as given in publication PMC10748408 (Frontiers in Oncology, 2023).
# Experiments:
# tumor cells = assay: Autophagic cells (acridine orange, flow cytometry) in cells isolated from tumors; type: in vivo, BALB/c mice; conditions: tumor-bearing mice, T+6.25 to T+50 mg/kg, vs Tumor
# Protocol: Acidic vesicular organelles (AVOs) were examined by microscopy and quantified using flow cytometry of acridine orange (AO) stained cells. Cells were isolated from tissues by collagenase-hyaluronidase digestion and stained with AO (1µg/ml) by incubation at 37°C for 15 minutes in dark. Following subsequent PBS washes, the cells were observed under Olympus laser-scanning confocal microscope (FV-10 ASW 3.0 viewer image browser) at 450 and 593 nm to determine AVOs.
# beclin1 and LC3α/β = assay: Western blot of autophagic markers in tumor tissues; type: in vivo, BALB/c mice; conditions: ART dose-dependent
# Protocol: Normal and tumor tissues were homogenized in ice-cold radioimmunoprecipitation assay (RIPA) buffer containing a protease inhibitor cocktail. Proteins were resolved by 10% sodium dodecyl sulphate-polyacrylamide gel electrophoresis (SDS-PAGE), transferred onto polyvinylidene difluoride (PVDF) membranes, blocked with 5% fat-free milk and incubated with primary antibodies (1:1000 dilution) overnight at 4°C. Blots were subsequently washed and incubated with respective secondary antibodies, tagged with horseradish peroxidase. Protein expression was detected using enhanced chemiluminescence (ECL) kit ([37]). Blots were analyzed using the Gel Doc XR and band intensity quantified using ImageJ software (NIH, USA).
# MDA-MB-231 cells = assay: Apoptotic cells (Annexin-FITC/PI flow cytometry) with or without CLEC12A overexpression; type: cell-based, Human; conditions: MDA-MB-231, non-transfected, ART + (5 µM, 24 hours); without ART 0.5%
# Protocol: Cells, isolated from normal and treated/untreated tumor tissues by collagenase-hyaluronidase digestion, were washed with Ca^2+-free PBS and stained with Annexin V binding buffer (1X). The cells were then incubated with Annexin V-FITC and propidium iodide (PI) for 15 minutes at 37°C. Cells were eventually analyzed on the BD FACS Aria III (Alexa Fluor at 488nm and PE at 570 nm, respectively). The percentage of apoptotic and necrotic cells were analyzed using the […]™ software (BD Biosciences, USA; [37]). For transfection, MDA-MB-231 and 4T1 cells were grown in a 6-well plate until they reached 70% confluency. CLEC12A-pcDNA recombinant/empty DNA plasmid (2500ng) or pcDNA empty vector (2500ng) was transfected into cells using 5μl Lipofectamine® 2000 reagent. […] Finally, transfection efficiency was confirmed by western blot analysis ([42]).
# tumor-bearing mice = assay: Serum biochemical parameters (ALT, AST, creatinine, urea) of tumor-bearing mice treated with ART; type: in vivo, BALB/c mice; conditions: 7 days
# Protocol: Mouse mammary 4T1 cells in passage numbers between 7 and 12 (10^4 cells/ml in 50 µl PBS) were injected into the inguinal 4th mammary fat pad of BALB/c mice ([23], [24]). Normal mice received an equal volume of sterile PBS. A palpable tumor was allowed to develop for 14 days ([24]). […] Normal (mammary fat pad surrounding the 4th inguinal mammary pad), mammary tumor, and organs like lungs, kidney, liver, and blood were collected at the end of the experimental schedule. Body weight and tumor volume of each mouse were recorded daily during the tenure of the experiment. Tumor volume was calculated using the following formula: length (mm) × width^2 (mm) × 0.52 ([25]). Levels of alanine aminotransferase (ALT) and aspartate aminotransferase (AST) from the serum were determined using ALT and AST estimation kits (Robonik India Pvt. Ltd, India). Briefly, for ALT activity estimation, Reagent 1 (Tris Buffer, L-Alanine, Lactate Dehydrogenase) and Reagent 2 (α-ketoglutarate, NADH) was mixed (4:1) with 100 µl serum. After 60 seconds incubation, absorbance was measured at 340 nm every minute for 180 seconds (ΔA/minute). Finally, the activity was estimated using the formula: Activity of the sample = (ΔA/minute x 1746). Analysis and final calculations were carried out according to the manufacturer’s protocol ([29]) For AST activity estimation, Reagent 1 (Tris Buffer, L-Aspartate, Lactate Dehydrogenase; >600U/L, Malate dehydrogenase; >600U/L) and Reagent 2 (α-ketoglutarate, NADH) was mixed together (4:1) with 100 µl serum. After incubation for 60 seconds, absorbance was measured at 340 nm per minute for 180 seconds (ΔA/minute). Finally, the activity was estimated using the formula: Activity of the sample = (ΔA/minute x 1746). Analysis and final calculations were carried out according to the manufacturer’s protocol ([30]). For estimation of creatinine level, picric acid (0.5 ml), buffer (0.5 ml) and sample (Test)/standard (S) (0.1 ml) were mixed and absorbance was measured at 520 nm for 30 seconds and 60 seconds. The rate of change of absorbance was determined for the standard (ΔS) and test (ΔT) samples. The levels were estimated using the formula: creatinine (mg/dl) = (ΔT)/(ΔS) x 2.0 ([31]). Urea levels were estimated using specific metabolite analysis kits. Buffer (1 ml), enzyme (0.1 ml), sample (test)/standard (0.1 ml) and chromogen reagent (0.2 ml) were mixed. Absorbance was measured at 570 nm after 5 minutes of incubation of test (Abs T) and standard (Abs S) samples. The levels were estimated using the formula: Urea (mg/dl) = (AbsT)/(AbsS) x 40. Analysis and calculations were carried out according to the manufacturer’s protocol ([32]).
# Body weight of mice = type: in vivo, BALB/c mice
# Protocol: Mouse mammary 4T1 cells in passage numbers between 7 and 12 (10^4 cells/ml in 50 µl PBS) were injected into the inguinal 4th mammary fat pad of BALB/c mice ([23], [24]). Normal mice received an equal volume of sterile PBS. A palpable tumor was allowed to develop for 14 days ([24]). […] Normal (mammary fat pad surrounding the 4th inguinal mammary pad), mammary tumor, and organs like lungs, kidney, liver, and blood were collected at the end of the experimental schedule. Body weight and tumor volume of each mouse were recorded daily during the tenure of the experiment. Tumor volume was calculated using the following formula: length (mm) × width^2 (mm) × 0.52 ([25]).
smiles,measurement,setting,value
"C[C@@H]1CC[C@H]2[C@@H](C)C(=O)O[C@@H]3O[C@@]4(C)CC[C@@H]1[C@]32OO4 [ART, Artemisinin]",percentage of autophagic cells,tumor cells,dose-dependent decrease
same,"expression of autophagic markers, beclin1 and LC3α/β",beclin1 and LC3α/β,decreased expression
same,percentage of apoptotic cells,MDA-MB-231 cells,22%
same,ALT,tumor-bearing mice; ART 6.25 mg/kg body wt i.p.,43.8 ± 1.8 U/l
same,AST,tumor-bearing mice; ART 6.25 mg/kg body wt i.p.,38.6 ± 2.6 U/l
same,Creatinine,tumor-bearing mice; ART 6.25 mg/kg body wt i.p.,1.21 ± 0.21 mg/dL
same,Urea,tumor-bearing mice; ART 6.25 mg/kg body wt i.p.,44.5 ± 1.8 mg/dL
same,ALT,tumor-bearing mice; ART 12.5 mg/kg body wt i.p.,41.3 ± 3.1 U/l
same,AST,tumor-bearing mice; ART 12.5 mg/kg body wt i.p.,38.2 ± 2.4 U/l
same,Creatinine,tumor-bearing mice; ART 12.5 mg/kg body wt i.p.,0.85 ± 0.18 mg/dL
same,Urea,tumor-bearing mice; ART 12.5 mg/kg body wt i.p.,32.3 ± 0.5 mg/dL
same,ALT,tumor-bearing mice; ART 25 mg/kg body wt i.p.,38.9 ± 2.9 U/l
same,AST,tumor-bearing mice; ART 25 mg/kg body wt i.p.,33.2 ± 2.8 U/l
same,Creatinine,tumor-bearing mice; ART 25 mg/kg body wt i.p.,0.71 ± 0.16 mg/dL
same,Urea,tumor-bearing mice; ART 25 mg/kg body wt i.p.,32.2 ± 1.1 mg/dL
same,ALT,tumor-bearing mice; ART 50 mg/kg body wt i.p.,36.6 ± 1.6 U/l
same,AST,tumor-bearing mice; ART 50 mg/kg body wt i.p.,31.8 ± 2.9 U/l
same,Creatinine,tumor-bearing mice; ART 50 mg/kg body wt i.p.,0.68 ± 0.11 mg/dL
same,Urea,tumor-bearing mice; ART 50 mg/kg body wt i.p.,27.1 ± 1.4 mg/dL
same,body weight,"Body weight of mice; normal mice, ART 6.25-50 mg/kg, 7 days, vs vehicle",did not alter
same,body weight,"Body weight of mice; tumor-bearing mice, ART treatment, dose-dependent",restored towards normal values
